Measurements from patent US12655142B2 (Merck Patent GmbH, priority 2019, dated 2026).

What was measured:
[1] = biological target: T1, GIST430/654 cell line expressing mutated constitutively active cKIT receptor tyrosine kinase (Δ560-576 deletion and V654A point mutation) (Homo sapiens, UniProt P10721, DEL560-576/V654A); test: Cellular cKIT autophosphorylation (phospho-Y307-cKIT, Luminex bead assay) in GIST430/654 cells; type: cell-based; details: compounds 45 min, read-out: GIST 430/654 IC50
T1 construct: endogenous in cells; host or cells: GIST430/654 cells
Method in brief: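 Phospho-Y307 cKIT in lysates was measured on a Luminex bead assay, with total-cKIT capture overnight at 4 °C and phosphospecific plus PE secondary detection. Cells had 45 min exposure to a compound dilution series the day after plating: GIST430 (Δ560-576) or GIST430/654 (Δ560-576/V654A, grown with 100 nM imatinib). IC50 values are relative to 0.3% DMSO-treated cells.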

c-Kit(V654A) = biological target: T2, c-Kit(V654A) (Homo sapiens, UniProt P10721, V654A); test: c-Kit(V654A) assay (33P-ATP filter binding kinase assay); type: biochemical; details: recombinant human c-Kit aa 544-end V654A, ATP 200 μM
T2 construct: recombinant human c-Kit, amino acids 544-end containing the V654A mutation; GST (N)
Method in brief: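 Radiometric filter-binding read-out: substrate 33P incorporation counted by scintillation after P30 filtermat washes in 75 mM phosphoric acid and methanol. Enzyme: N-GST recombinant human c-Kit aa 544-end carrying V654A.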

[2] = Determination of Efflux-Ratio (ER) in Caco-2 cells; details: human, Caco-2, pH 7.4

T1 sequence (P10721 with tags, fused parts or gaps DEL560-576/V654A): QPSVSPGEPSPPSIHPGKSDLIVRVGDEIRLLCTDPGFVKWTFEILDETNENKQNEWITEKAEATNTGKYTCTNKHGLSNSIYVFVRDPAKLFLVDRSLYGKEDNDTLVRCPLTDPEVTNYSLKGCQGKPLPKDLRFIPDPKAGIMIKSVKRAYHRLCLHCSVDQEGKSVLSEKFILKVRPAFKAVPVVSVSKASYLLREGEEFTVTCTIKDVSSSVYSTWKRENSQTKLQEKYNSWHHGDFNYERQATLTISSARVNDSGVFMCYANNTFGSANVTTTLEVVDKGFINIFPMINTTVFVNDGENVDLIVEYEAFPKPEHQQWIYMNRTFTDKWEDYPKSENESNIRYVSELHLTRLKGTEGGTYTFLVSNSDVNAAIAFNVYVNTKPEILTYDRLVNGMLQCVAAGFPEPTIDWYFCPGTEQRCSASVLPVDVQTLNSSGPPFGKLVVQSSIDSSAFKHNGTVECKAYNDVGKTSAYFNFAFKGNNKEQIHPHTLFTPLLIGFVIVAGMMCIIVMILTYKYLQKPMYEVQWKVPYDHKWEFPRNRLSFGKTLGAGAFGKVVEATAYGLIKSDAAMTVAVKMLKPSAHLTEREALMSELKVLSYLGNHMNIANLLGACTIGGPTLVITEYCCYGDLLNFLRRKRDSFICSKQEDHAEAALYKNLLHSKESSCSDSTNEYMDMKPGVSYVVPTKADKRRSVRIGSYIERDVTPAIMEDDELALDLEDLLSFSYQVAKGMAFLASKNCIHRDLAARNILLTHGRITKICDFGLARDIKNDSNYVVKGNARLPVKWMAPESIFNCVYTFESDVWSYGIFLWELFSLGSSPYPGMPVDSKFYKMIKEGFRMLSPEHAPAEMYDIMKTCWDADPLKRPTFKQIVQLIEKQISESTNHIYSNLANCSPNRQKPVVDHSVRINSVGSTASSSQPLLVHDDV
T2 sequence (P10721 544-976 V654A): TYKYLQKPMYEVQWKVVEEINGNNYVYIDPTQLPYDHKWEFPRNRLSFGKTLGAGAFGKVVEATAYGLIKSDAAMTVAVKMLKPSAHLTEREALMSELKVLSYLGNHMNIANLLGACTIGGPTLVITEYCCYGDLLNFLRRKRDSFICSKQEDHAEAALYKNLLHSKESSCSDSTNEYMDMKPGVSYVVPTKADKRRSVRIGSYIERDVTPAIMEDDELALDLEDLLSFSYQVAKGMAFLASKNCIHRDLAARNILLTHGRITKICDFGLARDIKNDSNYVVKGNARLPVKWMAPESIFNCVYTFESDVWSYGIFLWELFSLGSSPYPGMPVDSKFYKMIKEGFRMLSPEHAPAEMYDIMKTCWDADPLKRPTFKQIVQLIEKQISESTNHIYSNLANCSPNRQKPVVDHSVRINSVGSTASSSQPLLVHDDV

SMILES	IC50 [1] [µM]	IC50 (c-Kit(V654A)) [µM]	efflux ratio at 2 h, 1 μM [2]
Cn1cc(-c2ccc(CNc3cc(-c4cnc5cc(OCCN6Cc7ccncc7C6)ccn45)ncn3)cc2)cn1 [A195, (6-{7-[2-(1,3-dihydro-pyrrolo[3,4-c]pyridin-2-yl)-ethoxy]-imidazo[1,2-a]pyridin-3-yl}-pyrimidin-4-yl)-[4-(1-methyl-1H-pyrazol-4-yl)-benzyl]-amine]	0.072	0.0097	< 15
Cn1cc(-c2ccc(CNc3cc(-c4cnc5cc(OCCN6CCC(C)(F)CC6)ccn45)ncn3)cc2)cn1 [A196, (6-{7-[2-(4-fluoro-4-methyl-piperidin-1-yl)-ethoxy]-imidazo[1,2-a]pyridin-3-yl}-pyrimidin-4-yl)-[4-(1-methyl-1H-pyrazol-4-yl)-benzyl]-amine]	0.14	0.014	< 15
Cn1cc(-c2ccc(CNc3cc(-c4cnc5cc(OCCN6CCN(C7CC7)CC6)ccn45)ncn3)cc2)cn1 [A197, (6-{7-[2-(4-cyclopropyl-piperazin-1-yl)-ethoxy]-imidazo[1,2-a]pyridin-3-yl}-pyrimidin-4-yl)-[4-(1-methyl-1H-pyrazol-4-yl)-benzyl]-amine]	0.15	0.012	< 15
CN1CC2CCC(C1)N2CCOc1ccn2c(-c3cc(NCc4ccc(-c5cnn(C)c5)cc4)ncn3)cnc2c1 [A198, (6-{7-[2-(3-methyl-3,8-diaza-bicyclo[3.2.1]oct-8-yl)-ethoxy]-imidazo[1,2-a]pyridin-3-yl}-pyrimidin-4-yl)-[4-(1-methyl-1H-pyrazol-4-yl)-benzyl]-amine]	0.12	0.01	15 to 50
Cn1cc(-c2ccc(CNc3cc(-c4cnc5cc(OCCN6CC7CC6C[S+]7[O-])ccn45)ncn3)cc2)cn1 (stereo not drawn) [A199, [4-(1-methyl-1H-pyrazol-4-yl)-benzyl]-(6-{7-[2-(2-oxo-2|4-thia-5-aza-bicyclo[2.2.1]hept-5-yl)-ethoxy]-imidazo[1,2-a]pyridin-3-yl}-pyrimidin-4-yl)-amine]	0.1	0.0097	> 50
Cn1cc(-c2ccc(CNc3cc(-c4cnc5cc(OCCN6CCOCC(F)(F)C6)ccn45)ncn3)cc2)cn1 [A200, (6-{7-[2-(6,6-difluoro-[1,4]oxazepan-4-yl)-ethoxy]-imidazo[1,2-a]pyridin-3-yl}-pyrimidin-4-yl)-[4-(1-methyl-1H-pyrazol-4-yl)-benzyl]-amine]	0.19	0.027	< 15
Cn1cc(-c2ccc(CNc3cc(-c4cnc5cc(OCCN6CCN7CCOCC7C6)ccn45)ncn3)cc2)cn1 (stereo not drawn) [A201, (6-{7-[2-(hexahydro-pyrazino[2,1-c][1,4]oxazin-8-yl)-ethoxy]-imidazo[1,2-a]pyridin-3-yl}-pyrimidin-4-yl)-[4-(1-methyl-1H-pyrazol-4-yl)-benzyl]-amine]	0.099	0.013	< 15
Cn1cc(-c2ccc(CNc3cc(-c4cnc5cc(OCCN6CCC(F)(F)CC6)ccn45)ncn3)cc2)cn1 [A202, (6-{7-[2-(4,4-difluoro-piperidin-1-yl)-ethoxy]-imidazo[1,2-a]pyridin-3-yl}-pyrimidin-4-yl)-[4-(1-methyl-1H-pyrazol-4-yl)-benzyl]-amine]	0.2	0.017	< 15
Cn1cc(-c2ccc(CNc3cc(-c4cnc5cc(OCCN6CCn7cnnc7C6)ccn45)ncn3)cc2)cn1 [A203, (6-{7-[2-(5,6-dihydro-8H-[1,2,4]triazolo[4,3-a]pyrazin-7-yl)-ethoxy]-imidazo[1,2-a]pyridin-3-yl}-pyrimidin-4-yl)-[4-(1-methyl-1H-pyrazol-4-yl)-benzyl]-amine]	0.42	0.0098	> 50
